System: 926638-142-R-J1-PDC complex spheroid viability
Assay: Anticancer human tumor 926638-142-R-J1-PDC patient-derived endometrial carcinoma cell line growth inhibition [POLQ]
Conditions: for IC50: curve of first compound; for viability, T/C: stronger effect = lower value
Outline: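 Growth inhibition in 3D: complex spheroids (tumor PDC, HUVEC, MSC) treated with POLQ inhibitor combinations; where Cmax unknown, highest tested concentration 10 microM, except SN-38 at 1 microM.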

[1] = second compound 0.0316 µM, first compound 0.0316 µM
[2] = second compound 0.0316 µM, first compound 0.1 µM
[3] = second compound 0.0316 µM, first compound 0.316 µM
[4] = second compound 0.0316 µM, first compound 1 µM
[5] = second compound 0.0316 µM, first compound 3.16 µM
[6] = second compound 0.0316 µM, first compound 10 µM
[7] = second compound 0.1 µM, first compound 0.0316 µM
[8] = second compound 0.1 µM, first compound 0.1 µM
[9] = second compound 0.1 µM, first compound 0.316 µM
[10] = second compound 0.1 µM, first compound 1 µM
[11] = second compound 0.1 µM, first compound 3.16 µM
[12] = second compound 0.1 µM, first compound 10 µM
[13] = second compound 0.316 µM, first compound 0.0316 µM
[14] = second compound 0.316 µM, first compound 0.1 µM
[15] = second compound 0.316 µM, first compound 0.316 µM
[16] = second compound 0.316 µM, first compound 1 µM
[17] = second compound 0.316 µM, first compound 3.16 µM
[18] = second compound 0.316 µM, first compound 10 µM
[19] = second compound 1 µM, first compound 0.0316 µM
[20] = second compound 1 µM, first compound 0.1 µM
[21] = second compound 1 µM, first compound 0.316 µM
[22] = second compound 1 µM, first compound 1 µM
[23] = second compound 1 µM, first compound 3.16 µM
[24] = second compound 1 µM, first compound 10 µM
[25] = second compound 3.16 µM, first compound 0.0316 µM
[26] = second compound 3.16 µM, first compound 0.1 µM
[27] = second compound 3.16 µM, first compound 0.316 µM
[28] = second compound 3.16 µM, first compound 1 µM
[29] = second compound 3.16 µM, first compound 3.16 µM
[30] = second compound 3.16 µM, first compound 10 µM
[31] = second compound 10 µM, first compound 0.0316 µM
[32] = second compound 10 µM, first compound 0.1 µM
[33] = second compound 10 µM, first compound 0.316 µM
[34] = second compound 10 µM, first compound 1 µM
[35] = second compound 10 µM, first compound 3.16 µM
[36] = second compound 10 µM, first compound 10 µM
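Further: spheroids exposed to drugs for one week before readout.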
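Wherever viability, T/C is given: percent viability relative to DMSO vehicle control wells set as 100%.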

## COc1cccc2c1C(=O)c1c(O)c3c(c(O)c1C2=O)CC(O)(C(=O)CO)CC3OC1CC(N)C(O)C(C)O1 (centres undefined) + COC1C(OC(N)=O)C(O)C(Oc2ccc3c(O)c(NC(=O)c4ccc(O)c(CC=C(C)C)c4)c(=O)oc3c2C)OC1(C)C
Second compound 0.0316 µM
  IC50: 0.0941 µM
Second compound 0.1 µM
  IC50: 0.167 µM
Second compound 0.316 µM
  IC50: 0.129 µM
Second compound 1 µM
  IC50: 0.128 µM
Second compound 3.16 µM
  IC50: 0.133 µM
Second compound 10 µM
  IC50: 0.154 µM
[1]
  viability, T/C: 73.2%
[2]
  viability, T/C: 48.3%
[3]
  viability, T/C: 17.7%
[4]
  viability, T/C: 1.39%
[5]
  viability, T/C: 0.18%
[6]
  viability, T/C: 0.28%
[7]
  viability, T/C: 81%
[8]
  viability, T/C: 74.1%
[9]
  viability, T/C: 19.9%
[10]
  viability, T/C: 3.56%
[11]
  viability, T/C: 0.18%
[12]
  viability, T/C: 0.25%
[13]
  viability, T/C: 81.6%
[14]
  viability, T/C: 59.9%
[15]
  viability, T/C: 15.9%
[16]
  viability, T/C: 1.61%
[17]
  viability, T/C: 0.22%
[18]
  viability, T/C: 0.17%
[19]
  viability, T/C: 72.9%
[20]
  viability, T/C: 59.8%
[21]
  viability, T/C: 14%
[22]
  viability, T/C: 2.68%
[23]
  viability, T/C: 0.17%
[24]
  viability, T/C: 0.21%
[25]
  viability, T/C: 74.3%
[26]
  viability, T/C: 61.1%
[27]
  viability, T/C: 16.2%
[28]
  viability, T/C: 3.97%
[29]
  viability, T/C: 0.21%
[30]
  viability, T/C: 0.21%
[31]
  viability, T/C: 90.7%
[32]
  viability, T/C: 69%
[33]
  viability, T/C: 18%
[34]
  viability, T/C: 2.23%
[35]
  viability, T/C: 0.25%
[36]
  viability, T/C: 0.26%

## CC1COCCN1c1cc(C2(S(C)(=N)=O)CC2)nc(-c2ccnc3[nH]ccc23)n1 (centres undefined) + Nc1ccc(C#CCN(C(=O)Cc2ncc(C(F)(F)F)cc2C(F)(F)F)c2ccc(F)cc2)nn1
Second compound 0.0316 µM
  IC50: 5.2 µM
Second compound 0.1 µM
  IC50: 4.68 µM
Second compound 0.316 µM
  IC50: 5.47 µM
Second compound 1 µM
  IC50: 4.85 µM
Second compound 3.16 µM
  IC50: 3.93 µM
Second compound 10 µM
  IC50: 5.63 µM
[1]
  viability, T/C: 111%
[2]
  viability, T/C: 108%
[3]
  viability, T/C: 93.2%
[4]
  viability, T/C: 82.3%
[5]
  viability, T/C: 71%
[6]
  viability, T/C: 28.3%
[7]
  viability, T/C: 111%
[8]
  viability, T/C: 110%
[9]
  viability, T/C: 97.4%
[10]
  viability, T/C: 77.9%
[11]
  viability, T/C: 63.6%
[12]
  viability, T/C: 28.9%
[13]
  viability, T/C: 99.4%
[14]
  viability, T/C: 104%
[15]
  viability, T/C: 91.9%
[16]
  viability, T/C: 84.3%
[17]
  viability, T/C: 65.9%
[18]
  viability, T/C: 32.8%
[19]
  viability, T/C: 103%
[20]
  viability, T/C: 106%
[21]
  viability, T/C: 90.4%
[22]
  viability, T/C: 80%
[23]
  viability, T/C: 64.4%
[24]
  viability, T/C: 28.9%
[25]
  viability, T/C: 100%
[26]
  viability, T/C: 98.9%
[27]
  viability, T/C: 99.5%
[28]
  viability, T/C: 92.6%
[29]
  viability, T/C: 54.7%
[30]
  viability, T/C: 29.7%
[31]
  viability, T/C: 98.5%
[32]
  viability, T/C: 90.6%
[33]
  viability, T/C: 87.9%
[34]
  viability, T/C: 90.9%
[35]
  viability, T/C: 70.2%
[36]
  viability, T/C: 29.8%
